Km data for two compounds are collected here from paper PMC3173295, “Biochemical characterization of trans-sialidase TS1 variants from Trypanosoma congolense” (BMC Biochemistry, 2011).

Common to all, as to type: biochemical, Trypanosoma congolense
Assay [1] concerns T1, T. congolense TS1 e-1.
T1 construct: residues 17-732 without signal peptide and GPI anchor region; C-terminal 3C site, SNAP and Strep tags; secreted from CHO Lec1 cells; 120 kDa with tags
Kind of assay: HPAEC-PAD quantification of […]'Sia-Gal-MU, Michaelis-Menten fit. As to conditions: acceptor substrate; donor 50 nmol 3'SL in 50 μL (Figure 7 legend; text b29 says fetuin, 600 μM bound Sia); 37°C, 30 min; read-out: Acceptor substrates / Gal-MU / KM.

For assay [2], the system named is T2, T. congolense TS1b.
T2 construct: residues 17-732 without signal peptide and GPI anchor region; C-terminal 3C site, SNAP and Strep tags; secreted from CHO Lec1 cells; 120 kDa with tags
The assay is described as above. To be noted: acceptor substrate; donor 50 nmol 3'SL in 50 μL (Figure 7 legend; text b29 says fetuin, 600 μM bound Sia); 37°C, 30 min; read-out: Acceptor substrates / Gal-MU / KM.

Assay [3] deals with T1, T. congolense TS1 e-1. Put plainly: HPAEC-PAD quantification of […]'-sialyllactose, Michaelis-Menten fit. As to conditions: acceptor substrate; donor fetuin (600 μM bound Sia); pH 7.4-7.5, 37°C, 30 min; read-out: Acceptor substrates / Lactose / KM.
The test system of assay [4] is T2, T. congolense TS1b. The assay is described as above. To be noted: acceptor substrate; donor fetuin (600 μM bound Sia); pH 7.4-7.5, 37°C, 30 min; read-out: Acceptor substrates / Lactose / KM.

For the compound `Cc1cc(=O)oc2cc(O[C@@H]3O[C@H](CO)[C@H](O)[C@H](O)[C@H]3O)ccc12` [Gal-MU, 4-methylumbelliferyl ß-D-galactoside], the results for the Km with T. congolense TS1 e-1 [1] and in the assay on T. congolense TS1b [2] were 74 ± 17 µM and 57 ± 14 µM, respectively.
In the case of `OC[C@H]1O[C@@H](O[C@H]2[C@H](O)[C@@H](O)C(O)O[C@@H]2CO)[C@H](O)[C@@H](O)[C@H]1O` (stereo partly shown) [lactose], the Km with T. congolense TS1 e-1 [3] was determined as 727 ± 48 µM; with T. congolense TS1b [4] it was 1680 ± 101 µM.
